For series [1], the system named is SARS-CoV-2 in Vero-E6 cells. As to the kind of experiment: microbe, parasite or virus in culture. The format is cell-based. The following applies: for EC50: read-out: EC50 approx.
Series [2] can be described thus: Cytotoxicity by MTT colorimetric assay, Vero-E6. The class given is cell-based. The following applies: African green monkey, uninfected Vero-E6 cells.
In series [3] the test system is vesicular stomatitis virus (VSV-GFP). Briefly: microbe, parasite or virus in culture. The format is cell-based. Conditions: A549-ACE2, 16 h.
Another series can be described thus: in vitro. Conditions: African green monkey.
The test system of series [4] is West Nile virus (WNV-GFP). Briefly: microbe, parasite or virus in culture. The format is cell-based. The following applies: Huh-7, 48 h.
The subject of series [5] is SARS-CoV-2. As to the kind of experiment: Intracellular viral antigen (N protein) accumulation by immunofluorescence, A549-ACE2 cells. The format is cell-based.
In another series the test system is HCoV 229E (229E-GFP). Briefly: organism not typed. Conditions: Huh-7, 48 h.
The test system of series [6] is SARS-CoV-2. As to the kind of experiment: Intracellular viral antigen (N protein) accumulation by immunofluorescence, Vero-E6 cells. The class given is cell-based.
Where [7] appears, read: Severe acute respiratory syndrome coronavirus 2, Vero C1008, approximate, estimated from PCmax and PCmin, Vero-E6, MOI 0.001, 72 h.
Setting [8] is: Severe acute respiratory syndrome coronavirus 2, Vero C1008, minimum nominal concentration protecting the Vero-E6 monolayer from virus-induced cell death, MOI 0.001, 72 h, read-out: PCmin.
Setting [9] is: Severe acute respiratory syndrome coronavirus 2, Vero C1008, real concentration, Vero-E6, MOI 0.001, 72 h, read-out: PC min real.
[10] abbreviates: Severe acute respiratory syndrome coronavirus 2, Vero C1008, 72 h.
Where [11] appears, read: Severe acute respiratory syndrome coronavirus 2, Vero C1008, 72 h, read-out: PC min real.
Setting [12] is: Severe acute respiratory syndrome coronavirus 2, Vero C1008, 72 h, read-out: PCmin.
Where [13] appears, read: Severe acute respiratory syndrome coronavirus 2, A549-ACE2, 48 h.
The mark [14] stands for this setting: Severe acute respiratory syndrome coronavirus 2, Vero C1008, 24 h.

The source of these data is patent publication EP4389121A1, “ANTIVIRAL AMINO ACID DERIVATIVES” (Consejo Superior De Investigaciones Científicas (CSIC), priority 2022, dated 2024).

Where two headings read alike, the source gives them in different places. Where only a bound is given, the exact number is not on record here.

Experimental for HCoV 229E (229E-GFP): To study the antiviral effect of selected compounds of the family against a distinct human coronavirus, Huh-7 cell monolayers were infected with a GFP-expressing recombinant HCoV 229E (229E-GFP) at MOI 0.01 in the presence of a wide range of compound concentrations (0.4 to 50 µM). Forty-eight hours later cells were fixed by 10 minutes incubation with a 4 % formaldehyde-PBS solution. After extensive washes with PBS, infection efficiency was evaluated by the detection of GFP accumulation by fluorescence microscopy. Nuclei were stained using DAPI (4',6-diamidino-2-phenylindole) dye. Automated imaging was carried out in a SparkCyto (Tecan) multimode plate reader. The total intensity signal present in vehicle-treated (DMSO) conditions was used as reference (100 %).

As for `O=C(CC[C@H](NC(=O)OCc1ccccc1)C(=O)OCCBr)NCCC1CCN(Cc2ccccc2)CC1` [NF1363, 2-Bromoethyl N^2-((benzyloxy)carbonyl)-N^5-(2-(1-benzylpiperidin-4-yl)ethyl)-L-glutaminate], in series [1] (setting [7]), the EC50 is 5.4 µM. Further, the minimal effective concentration in series [1] (setting [8]) turned out to be 6.25 µM; in series [1] (setting [9]) it was 7.3 µM.

For the compound `CCCCCCOC(=O)[C@H](CCC(=O)NCCC1CCN(Cc2ccccc2)CC1)NC(=O)c1cc(=O)c2cc(OC)ccc2o1` [NF1337, n-Hexyl N^5-(2-(1-benzylpiperidin-4-yl)ethyl)-N^2-(6-methoxy-4-oxo-4H-chromene-2-carbonyl)-L-glutaminate], in series [1] (setting [7]), the EC50 is 7.7 µM. In addition, the minimal effective concentration came out at 12.5 µM in series [1] (setting [8]) and 10.3 µM in series [1] (setting [9]).

For `CCCCCCOC(=O)[C@H](CCC(=O)NCCC1CCN(Cc2ccccc2)CC1)NC(=O)c1cc(=O)c2c(OC)cc(OC)cc2o1` [NF1340, n-Hexyl N^5-(2-(1-benzylpiperidin-4-yl)ethyl)-N^2-(5,7-dimethoxy-4-oxo-4H-chromene-2-carbonyl)-L-glutaminate], the half-maximal effective concentration (EC50) in series [1] (setting [7]) is 41.8 µM. Besides, the minimal effective concentration in series [1] (setting [8]) came out at 50 µM; in series [1] (setting [9]) it was 55.7 µM.

As to `CCOC(=O)[C@H](CCC(=O)NCCC1CCN(Cc2ccccc2)CC1)NC(=O)c1cc2ccccc2oc1=O` [NF1358, Ethyl N^5-(2-(1-benzylpiperidin-4-yl)ethyl)-N^2-(2-oxo-2H-chromene-3-carbonyl)-L-glutaminate], the EC50 in series [1] (setting [7]) was 19.1 µM. In addition, the values for the minimal effective concentration in series [1] (setting [8]) and in series [1] (setting [9]) were 25 µM and 25.4 µM, respectively.

On to `CCCCCCOC(=O)[C@H](CCC(=O)NCCC1CCN(Cc2ccccc2)CC1)NC(=O)c1cc2ccccc2s1` [NF1352], for which, in series [1] (setting [10]), the EC50 came to 9.2 µM. Also, the figures for the minimal effective concentration in series [1] (setting [11]) and in series [1] (setting [12]) were 12.3 µM and 12.5 µM, respectively.

`CCOC(=O)[C@H](CCC(=O)NCCC1CCN(Cc2ccccc2)CC1)NC(=O)OCc1ccccc1` [NF1365, Ethyl N^2-((benzyloxy)carbonyl)-N^5-(2-(1-benzylpiperidin-4-yl)ethyl)-L-glutaminate]: the CC50 at 48 h in series [2] is > 50 µM. In addition, the EC50 in series [3] was 36 µM; in series [4], 27 µM; in series [1] (setting [7]), 2.4 µM; with SARS-CoV-2 [5] (Severe acute respiratory syndrome coronavirus 2, A549-ACE2, MOI 0.005, 48 h, N protein signal, read-out: EC50), 1 to 2 µM; in the series on HCoV 229E (229E-GFP), 1 µM; in the series with SARS-CoV-2 [6] (Severe acute respiratory syndrome coronavirus 2, Vero C1008, Vero-E6, MOI 0.01, 24 h, N protein signal, read-out: EC50), 1.8 µM. For the same compound, the 90% effect concentration (EC90) was 47 µM in series [3]; 45 µM in series [4]; 2.5 to 5 µM in the series with SARS-CoV-2 [5] (Severe acute respiratory syndrome coronavirus 2, A549-ACE2, MOI 0.005, 48 h, N protein signal, read-out: EC90); 8 µM in the series on HCoV 229E (229E-GFP); 6 µM with SARS-CoV-2 [6] (Severe acute respiratory syndrome coronavirus 2, Vero C1008, Vero-E6, MOI 0.01, 24 h, N protein signal, read-out: EC90). In addition, the CC50 in “in vitro” is 50 µM. Further, the minimal effective concentration is 3.12 µM in series [1] (setting [8]) and 3.2 µM in series [1] (setting [9]).

Consider `CCCCCCOC(=O)[C@H](CCC(=O)NCCC1CCN(Cc2ccccc2)CC1)NC(=O)c1c[nH]c2ccccc12` [NF1325], for which, in series [1] (setting [7]), the EC50 was 19.6 µM. The minimal effective concentration amounted to 25 µM in series [1] (setting [8]) and 26.1 µM in series [1] (setting [9]).

Regarding `CCCCCCOC(=O)[C@H](CCC(=O)NCCC1CCN(Cc2ccccc2)CC1)NC(=O)c1ccccc1` [NF0818], in series [1] (72 h), the PC min real came to 13.0 µM and the PCmax real amounted to 51.9 µM. For the same compound, the EC50 in series [1] (setting [10]) is 9.7 µM.

In the case of `CCOC(=O)[C@H](CCC(=O)NCCC1CCN(Cc2ccccc2)CC1)NC(=O)c1cc(=O)c2cc(OC)ccc2o1` [NF1336, Ethyl N^5-(2-(1-benzylpiperidin-4-yl)ethyl)-N^2-(6-methoxy-4-oxo-4H-chromene-2-carbonyl)-L-glutaminate], in series [1] (setting [7]), the EC50 was 18.4 µM. Further, the minimal effective concentration in series [1] (setting [8]) was 25 µM; in series [1] (setting [9]) it was 24.5 µM.

For the compound `CCCCCCOC(=O)[C@H](CCC(=O)NCCC1CCN(Cc2ccccc2)CC1)NC(=O)Cc1cc(C)no1` [NF1334, n-Hexyl N^5-(2-(1-benzylpiperidin-4-yl)ethyl)-N^2-(2-(3-methylisoxazol-5-yl)acetyl)-L-glutaminate], the EC50 in series [1] (setting [7]) is 10.5 µM. Besides, the minimal effective concentration stood at 25 µM in series [1] (setting [8]) and 14 µM in series [1] (setting [9]).

Turning to `CCOC(=O)CC[C@H](NC(=O)OCc1ccccc1)C(=O)NCCC1CCN(Cc2ccccc2)CC1` [NF1313], the EC50 in series [1] (setting [7]) was 19 µM. In addition, the results for the minimal effective concentration in series [1] (setting [8]) and in series [1] (setting [9]) were 25 µM and 25.3 µM, respectively.

`CCOC(=O)[C@H](CCC(=O)NCCC1CCN(Cc2ccccc2)CC1)NC(=O)c1ccc2ccccc2n1` [NF1360, Ethyl N^5-(2-(1-benzylpiperidin-4-yl)ethyl)-N^2-(quinoline-2-carbonyl)-L-glutaminate]: in series [1] (setting [7]), the EC50 is 24.3 µM. The minimal effective concentration in series [1] (setting [8]) came out at 50 µM; in series [1] (setting [9]), 32.3 µM.

Turning to `CCCCCCOC(=O)[C@H](CCC(=O)NCCC1CCN(Cc2ccccc2)CC1)NC(=O)Cc1cc2ccc(Cl)cc2s1` [NF1353], the EC50 in series [1] (setting [10]) was determined as 4.5 µM. The minimal effective concentration in series [1] (setting [11]) worked out at 6 µM; in series [1] (setting [12]) it was 6.25 µM.

On to `CCCCCCOC(=O)[C@H](CCC(=O)NCCC1CCN(Cc2ccccc2)CC1)NC(=O)c1cc(Br)cs1` [NF1351], for which the EC50 in series [1] (setting [10]) stood at 4.3 µM. Besides, the values for the minimal effective concentration in series [1] (setting [11]) and in series [1] (setting [12]) were 5.7 µM and 6.25 µM, respectively.

`CCCCCCOC(=O)[C@H](CCC(=O)NCCC1CCN(Cc2ccccc2)CC1)NC(=O)OCc1ccccc1` [NF1349]: in series [2], the CC50 at 48 h was > 50 µM. The EC50 in series [3] was 36 µM; in series [4], 36 µM; in series [1] (setting [10]), 4.7 µM; with SARS-CoV-2 [5] (setting [13]), 3 µM; in the series with HCoV 229E (229E-GFP), 2 µM; with SARS-CoV-2 [6] (setting [14]), 3.1 µM. For the same compound, the EC90 was 47 µM in series [3]; > 50 µM in series [4]; 5.5 µM in the series with SARS-CoV-2 [5] (setting [13]); 10 µM with HCoV 229E (229E-GFP); 7 µM in the series with SARS-CoV-2 [6] (setting [14]). In “in vitro”, the CC50 was > 50 µM. Moreover, the minimal effective concentration in series [1] (setting [11]) came to 6.3 µM; in series [1] (setting [12]), 6.25 µM.

Consider `CCOC(=O)[C@H](CCC(=O)NCCC1CCN(Cc2ccccc2)CC1)NC(=O)c1ccccc1` [NF1316], for which the EC50 in series [1] (setting [7]) was 19.4 µM. Also, the minimal effective concentration was found to be 25 µM in series [1] (setting [8]) and 25.9 µM in series [1] (setting [9]).

In the case of `CCCCCCOC(=O)[C@H](CCC(=O)NCCC1CCN(Cc2ccccc2)CC1)NC(=O)OC(C)(C)C` [NF1346], the EC50 in series [1] (setting [10]) came to 9.3 µM. Moreover, the minimal effective concentration was found to be 12.4 µM in series [1] (setting [11]) and 12.5 µM in series [1] (setting [12]).

As for `CCCCCCOC(=O)[C@H](CCC(=O)NCCC1CCN(Cc2ccccc2)CC1)NC(=O)c1cc2cccnc2s1` [NF1354], in series [1] (setting [10]), the EC50 is 20.9 µM. The minimal effective concentration was found to be 27.8 µM in series [1] (setting [11]) and 25 µM in series [1] (setting [12]).

As for `CCOC(=O)[C@H](CCC(=O)NCCC1CCN(Cc2ccccc2)CC1)NC(=O)c1ccc2cc(OC)ccc2c1` [NF1322], the EC50 in series [1] (setting [7]) is 9.4 µM. Further, the minimal effective concentration in series [1] (setting [8]) and in series [1] (setting [9]) was 12.5 µM each time.

On to `CCCCCCOC(=O)[C@H](CCC(=O)NCCC1CCN(Cc2ccccc2)CC1)NC(=O)c1cccs1` [NF1350], for which the EC50 in series [1] (setting [10]) turned out to be 6.9 µM. The minimal effective concentration was 9.2 µM in series [1] (setting [11]) and 6.25 µM in series [1] (setting [12]).

For the compound `CCCCCCOC(=O)[C@H](CCC(=O)NCCC1CCN(Cc2ccccc2)CC1)NC(=O)c1cc(C)on1` [NF1328, n-Hexyl N^5-(2-(1-benzylpiperidin-4-yl)ethyl)-N^2-(5-methylisoxazole-3-carbonyl)-L-glutaminate], the EC50 in series [1] (setting [7]) is 4.9 µM. For the same compound, the results for the minimal effective concentration in series [1] (setting [8]) and in series [1] (setting [9]) were 6.25 µM and 6.5 µM, respectively.
